Measured values as given in patent US11415579B2, “Assay for measuring a rate of reaction between a target and a ligand candidate” (Imperial College Innovations Ltd., priority 2016, dated 2022).

How the values were obtained:
Cdk2(H71C) (C177A) = target: T1, Cdk2(H71C) (C177A) (Homo sapiens, UniProt P24941, C177A/H71C); assay: Kinetic thiol consumption assay with Cdk2 mutant H71C; type: binding; design: key to Rate enhancement, Cdk2 H71C: rate constant with Cdk2 ÷ rate constant with model thiol (fold); conditions: additional mutation C177A; for Rate constant with Cdk2 H71C: Protein: Cdk2, cysteine position H71C, in h^-1
T1 construct: poly-histidine; made in house; host or cells: E. coli
How it was run: (§1)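 5 μM thiol, degassed phosphate pH 8, 2% v/v immobilized TCEP beads; 1 h RT; fluorescence ex 380/em 470 nm; normalized vs DMSO/thiol-only; first-order exponential decay fit → rate constant; Cdk2 k / model-thiol k = rate enhancement per acrylamide.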

Cdk2(R122C) (C177A) = target: T2, Cdk2(R122C) (C177A) (Homo sapiens, UniProt P24941, C177A/R122C); assay: Kinetic thiol consumption assay with Cdk2 mutant R122C; type: binding; design: key to Rate enhancement, Cdk2 R122C: rate constant with Cdk2 ÷ rate constant with model thiol (fold); conditions: additional mutation C177A; for Rate constant with Cdk2 R122C: Protein: Cdk2, cysteine position R122C, in h-1
T2 construct: poly-histidine; made in house; host or cells: E. coli
How it was run: as §1

Cdk2(S276C) (C177A) = target: T3, Cdk2(S276C) (C177A) (Homo sapiens, UniProt P24941, C177A/S276C); assay: Kinetic thiol consumption assay with Cdk2 mutant S276C; type: binding; design: key to Rate enhancement, Cdk2 S276C: rate constant with Cdk2 ÷ rate constant with model thiol (fold); conditions: additional mutation C177A; for Rate constant with Cdk2 S276C: Protein: Cdk2, cysteine position S276C, in h^-1
T3 construct: poly-histidine; made in house; host or cells: E. coli
How it was run: as §1

[1] = Kinetic thiol consumption assay with model thiol glutathione; type: physicochemical; design: Rate constant with glutathione (k(GSH)): unit not given here; conditions: for Rate constant with glutathione (k(GSH)): 500 μM ligand, 5 μM thiol, phosphate buffer pH 8; for Rate constant with Glutathione: Protein: Glutathione, cysteine position NA, in h-1
How it was run: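 First, 5 μM glutathione in degassed phosphate buffer (pH 8) receives immobilized TCEP beads (2% v/v). Then acrylamide is added and plates incubate 1 h at room temperature. Finally, fluorescence (380/470 nm) is normalized and fitted to first-order decay for rate constants.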

[2] = target: T4, human cyclin-dependent kinase 2 (Cdk2) (Homo sapiens, UniProt P24941); assay: Kinetic thiol consumption assay with wild type Cdk2 (C177); type: binding; design: key to Rate enhancement, Cdk2 WT: k(Cdk2) divided by k(model thiol); Rate constant with Cdk2 (k(Cdk2)): unit not given here; conditions: for Rate constant with Cdk2 (k(Cdk2)): 500 μM ligand, 5 μM thiol, phosphate buffer pH 8; for Rate enhancement, Cdk2 WT: no additional mutations; for Rate constant with Cdk2 WT: Protein: Cdk2, cysteine position WT, in h^-1; for k(Cdk2)/k(Cdk2_mut) rate enhancement: model thiol Cdk2[C177A, F80C, K278C]; for k(Cdk2)/k(GSH) rate enhancement: model thiol glutathione
T4 construct: poly-histidine; made in house; host or cells: E. coli
How it was run: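 Rate enhancement: first-order decay constant with Cdk2 over that with a model thiol. Thiols (5 μM, degassed phosphate buffer pH 8, immobilized TCEP) were incubated with acrylamides at room temperature, and thiol consumption followed by fluorescence at 380/470 nm, normalized to DMSO control. Cdk2 was His-tagged, E. coli-expressed, with one surface cysteine (C177).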

Cdk2[C177A, F80C, K278C] = target: T5, Cdk2[C177A, F80C, K278C] (Homo sapiens, UniProt P24941, C177A/F80C/K278C); assay: Kinetic thiol consumption assay with mutant Cdk2 as model thiol; type: binding; design: unit not given here; conditions: 500 μM ligand, 5 μM thiol, phosphate buffer pH 8
T5 construct: poly-histidine; made in house; host or cells: E. coli
How it was run: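 Model thiol: His-tagged human Cdk2 C177A/F80C/K278C (two engineered surface cysteines), E. coli-expressed, 5 μM in degassed phosphate buffer pH 8 with immobilized TCEP beads (2% v/v). Fluorescence (ex/em 380/470 nm) followed over time at room temperature, normalized to DMSO/thiol control. First-order decay fit gives rate constants.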

Cdk2(S181C) (C177A) = target: T6, Cdk2(S181C) (C177A) (Homo sapiens, UniProt P24941, C177A/S181C); assay: Kinetic thiol consumption assay with Cdk2 mutant S181C; type: binding; design: key to Rate enhancement, Cdk2 S181C: rate constant with Cdk2 ÷ rate constant with model thiol (fold); conditions: additional mutation C177A; for Rate constant with Cdk2 S181C: Protein: Cdk2, cysteine position S181C, in h^-1
T6 construct: poly-histidine; made in house; host or cells: E. coli
How it was run: as §1

Cdk2(T182C) (C177A) = target: T7, Cdk2(T182C) (C177A) (Homo sapiens, UniProt P24941, C177A/T182C); assay: Kinetic thiol consumption assay with Cdk2 mutant T182C; type: binding; design: key to Rate enhancement, Cdk2 T182C: rate constant with Cdk2 ÷ rate constant with model thiol (fold); conditions: additional mutation C177A; for Rate constant with Cdk2 T182C: Protein: Cdk2, cysteine position T182C, in h^-1
T7 construct: poly-histidine; made in house; host or cells: E. coli
How it was run: as §1

Cdk2(N272C) (C177A) = target: T8, Cdk2(N272C) (C177A) (Homo sapiens, UniProt P24941, C177A/N272C); assay: Kinetic thiol consumption assay with Cdk2 mutant N272C; type: binding; design: key to Rate enhancement, Cdk2 N272: rate constant with Cdk2 ÷ rate constant with model thiol (fold); conditions: for Rate enhancement, Cdk2 N272: Cdk2 N272, additional mutation C177A; for Rate constant with Cdk2 N272C: Protein: Cdk2, cysteine position N272C, additional mutation C177A, in h^-1
T8 construct: poly-histidine; made in house; host or cells: E. coli
How it was run: as §1

Cdk2(C177A, F80C) = target: T9, Cdk2(C177A, F80C) (Homo sapiens, UniProt P24941, C177A/F80C); assay: Kinetic thiol consumption assay with Cdk2 mutant F80C, incl. kobs versus concentration (Kd, k2); type: binding; design: key to Rate enhancement, Cdk2 F80C: Cdk2 rate constant divided by model-thiol rate constant; conditions: for Rate enhancement, Cdk2 F80C / Rate constant with Cdk2 F80C: additional mutation C177A; for Rate constant with Cdk2 F80C: Protein: Cdk2, cysteine position F80C, in h^-1
T9 construct: poly-histidine; made in house; host or cells: E. coli
How it was run: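 His-tagged Cdk2(C177A/F80C) from E. coli or model thiol, 5 μM in degassed phosphate buffer pH 8 with TCEP beads, reacted with acrylamide ligands; fluorescence (ex/em 380/470 nm) normalized to DMSO control and fitted to first-order decay for kobs. Kd and k2 obtained from hyperbolic fit of kobs versus ligand concentration.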

[3] = hyperbolic fit of kobs against ligand concentration

| SMILES | Rate enhancement, Cdk2 H71C (Cdk2(H71C) (C177A)) | Rate enhancement, Cdk2 R122C (Cdk2(R122C) (C177A)) | Rate constant with Cdk2 R122C (Cdk2(R122C) (C177A)) | Rate enhancement, Cdk2 S276C (Cdk2(S276C) (C177A)) | Rate constant with Cdk2 S276C (Cdk2(S276C) (C177A)) | Rate constant with glutathione (k(GSH)) [1] | Rate constant with Glutathione [1] | Rate constant with Cdk2 (k(Cdk2)) [2] | Rate enhancement, Cdk2 WT [2] | Rate constant with Cdk2 WT [2] | k(Cdk2)/k(Cdk2_mut) rate enhancement [2] | k(Cdk2)/k(GSH) rate enhancement [2] | Rate constant with Cdk2[C177A, F80C, K278C] (k(Cdk2_mut)) (Cdk2[C177A, F80C, K278C]) | Rate enhancement, Cdk2 S181C (Cdk2(S181C) (C177A)) | Rate constant with Cdk2 S181C (Cdk2(S181C) (C177A)) | Rate enhancement, Cdk2 T182C (Cdk2(T182C) (C177A)) | Rate constant with Cdk2 T182C (Cdk2(T182C) (C177A)) | Rate enhancement, Cdk2 N272 (Cdk2(N272C) (C177A)) | Rate constant with Cdk2 N272C (Cdk2(N272C) (C177A)) | Rate enhancement, Cdk2 F80C (Cdk2(C177A, F80C)) | also measured |
| --- | --- | --- | --- | --- | --- | --- | --- | --- | --- | --- | --- | --- | --- | --- | --- | --- | --- | --- | --- | --- | --- |
| C=CC(=O)N1CC(Cc2ccccc2)C1 [CA-072] | 16.46 | 0.3503 | 0.00778 | 4.036 | 0.08965 | 0.01236 | 0.02221 | 0.0241 | 1.085 | 0.0241 | 5.016 | 1.95 | 0.00481 | 2.167 | 0.04813 | 6.718 | 0.1492 | 9.388 | 0.2085 | 0.2566 | Rate constant with Cdk2 H71C (Cdk2(H71C) (C177A)): 0.3655; Rate constant with Cdk2 F80C (Cdk2(C177A, F80C)): 0.0057 |
| C=CC(=O)N1CCC(c2nnc3n2CCC3)CC1 [CA-106] | 0 | 0.2819 | 0.001115 | 0.7543 | 0.002984 | 0.00227 | 0.003956 | 0.00145 | 0.5857 | 0.002317 | 0.9576 | 0.6367 | 0.00151 | 1.69 | 0.006686 | 3.971 | 0.01571 | 3.031 | 0.01199 | 0 | – |
| C=CC(=O)Nc1ccc(-c2ncccn2)cc1 [CA-037] | 1.964 | 0.9697 | 0.0147 | 1.763 | 0.02673 | 0.01523 | 0.01516 | 0.05015 | 3.308 | 0.05015 | 0.2569 | 3.293 | 0.1952 | 1.495 | 0.02267 | 12.3 | 0.1865 | 1.739 | 0.02636 | 63.59 | Rate constant with Cdk2 H71C (Cdk2(H71C) (C177A)): 0.02977; hit classification against Cdk2(F80C, C177A) (Cdk2(C177A, F80C)): hit ligands; Rate constant with Cdk2 F80C (Cdk2(C177A, F80C)): 0.964; kobs (Cdk2(C177A, F80C); [CA37] 0.02 mM): 0.00007107 min⁻¹; kobs (Cdk2(C177A, F80C); [CA37] 0.05 mM): 0.000271 min⁻¹; kobs (Cdk2(C177A, F80C); [CA37] 0.1 mM): 0.0006704 min⁻¹; kobs (Cdk2(C177A, F80C); [CA37] 0.2 mM): 0.001313 min⁻¹; kobs (Cdk2(C177A, F80C); [CA37] 0.35 mM): 0.002029 min⁻¹; kobs (Cdk2(C177A, F80C); [CA37] 0.5 mM): 0.002372 min⁻¹; kobs (Cdk2(C177A, F80C); [CA37] 1 mM): 0.004177 min⁻¹; kobs (Cdk2(C177A, F80C); [CA37] 2 mM): 0.005626 min⁻¹; Kd (Cdk2(C177A, F80C); [3]): 1200 µM; k2 (Cdk2(C177A, F80C); [3]): 0.009427 min⁻¹ |
